In patent publication US20050106270A1, “Chemical treatment of in vivo tissue to alter charge and net charge density characteristics” (priority 2003, published 2005):
Where “and” joins values, the source holds several entries; their conditions need not be identical. Equal entries are not always repeated.

Tests used:
articular cartilage = assay: Rabbit articular cartilage slices, stress-strain analysis and histology; settings: 3 minutes exposure; for High Modulus Region Pa) / Low Region Modulus (Pa): 5 mg/ml in 0.02M disodium phosphate; for histological examination, control vs treated articular cartilage: 5 mg/ml
Experimental: Articular cartilage was dissected from both femoral and tibial chondyles of sacrificed rabbits. Cartilage slices were stored in sterile physiological saline. Eight slices of similar size (about 2 mm×2 mm) were placed in individual Eppendorf tubes. Physiological saline was replaced with 0.02M disodium phosphate at pH 8.5. […] Three specimens were treated with 0.02M disodium phosphate containing 5 mg/ml glutaric anhydride (95%). The remaining three specimens were treated with 0.02M disodium phosphate containing 5 mg/ml of acetic anhydride. Samples were exposed to control solution or acylation chemical for 3 minutes and then washed three times with sterile phosphate buffered saline (0.04M) at pH 7.2.

dermal tissue = assay: Second experiment: stress-strain analysis of dermal tissue strips (Sample C vs Sample D, FIG. 5); parameters: species or system human; settings: fresh 100 mg/mL anhydride solution
Experimental: FIG. 5 is a graph showing the stress-strain analysis of dermal tissue specimen C and dermal tissue specimen D after treating the specimens with the same acylating agent under different treatment conditions.
In a second experiment one strip (Sample C) of dermal tissue was exposed to a 100 mg/mL anhydride solution. A second strip (Sample D) was exposed to the same anhydride solution after about 2 minutes.

[1] = system: cornea of enucleated porcine eyes; assay: Enucleated porcine eyes, corneal power by topographical mapping (Optikon 2000); settings: for Post-treatment Power (D), corneal power by topographical mapping: 1 minute exposure
Description: Eyes were procured from a local slaughterhouse, positioned in a device to stabilize the eye and subjected to topographical evaluation using the Optikon 2000 system. The corneal surface was dried using sterile gauze and then wetted with drops of buffer solution. The wetted eyes were again dried and exposed again to the same solution. Then a peripheral ring around the circumference of the corneal surface, slightly away from the limbus and the central cornea, was carefully treated by adding drops of buffer containing the active agent, a 20 mg/ml solution of glutaric anhydride. The eyes were then reexamined topographically and photos taken. Following evaluation, the eyes were placed in OptiSol for storage pending additional evaluations. Three eyes were treated using this protocol. In two eyes the active agent at 20 mg/mL was applied to a ring around the corneal periphery. The exposure width was approximately 1 mm. In one eye the active agent at 20 mg/mL was applied to a 2 mm diameter area on the apex of the central cornea. The exposure time was 1 minute. All eyes were then washed with neutral pH phosphate buffer.

[2] = system: cornea of whole porcine (pig) eyes; assay: Treatment of trephined enucleated porcine eyes, inspection of corneal curvature; settings: 50 mg/mL in 0.2M disodium phosphate pH 9.0, 1 minute, 7 mm trephined ring
Experimental: Whole, fresh porcine (pig) eyes were obtained from a local abattoir and immediately placed in Optisol GS preservation solution. The whole eye was placed in a holder allowing the corneal surface to be exposed. A 7 mm trephine was used to cut through the epithelium and penetrate the superficial corneal tissue. The corneal surface was then flooded with 0.2M disodium phosphate solution, pH 9.0. After 1 minute, the surface of the cornea was dried using an absorbent wipe (Kim Wipe). The corneal surface was immediately treated with 0.2M disodium phosphate solution, pH 9.0, containing 50 mg/mL of glutaric anhydride. After 1 minute of exposure, the cornea was flushed with phosphate buffered saline, pH 7.2. The surface of the cornea was inspected and the corneal curvature examined and compared to untreated eyes. […] The application of glutaric anhydride to a trephined peripheral ring of a pig cornea produced obvious flattening of the central cornea. It is believed that this technique might provide a simple, non-surgical method for treating myopia by inducing swelling in defined ring on the corneal periphery, thereby causing flattening of the central cornea.

[3] = system: sclera tissue of bovine eyes; assay: Softening of bovine sclera tissue, compression analysis; settings: 100 mg/mL, 1 minute exposure
Experimental: Bovine eyes were procured from a local slaughterhouse and stored in Optisol solution. Whole eyes were removed from the preservation solution and the sclera dried using Kim wipes. A solution of 0.2M disodium phosphate, pH 9.5 was applied to the dried sclera tissue. The tissue was exposed to the disodium phosphate solution for 1 minute. The tissue was again dried using a Kim wipe and a solution containing 100 mg/mL of glutaric anhydride in […] was exposed to the anhydride solution for 1 minute and the tissue then thoroughly rinsed with sterile 0.02M phosphate buffer, pH 7.2. The exposed tissue was examined for tissue softening. […] Sclera tissue softening was also obvious by application of thumb pressure to treated and untreated areas of the sclera tissue. It is proposed that sclera softening using acylating agents may be used to expand sclera tissue, thereby permitting more space for the ciliary body to expand and contract the lens.

[4] = system: processed human skin (lyophilized dermis); assay: Acylation of processed human skin (lyophilized dermis), mechanical properties; settings: 1 minute treatment
Experimental: Processed human skin was obtained for treatment. The processed skin was comprised of lyophilized dermis. Four samples were tested, two 2 cm×4 cm specimens and two 2 cm×8 cm specimens. Two sets of specimens were treated with 50 mg/mL of glutaric anhydride (dose #1) and the other two sets with 100 mg/mL of glutaric anhydride (dose #2). The rejuvenation agents were prepared in dilute buffer solution. Prior to treatment with the active agent, skin specimens were pre-treated with buffer alone. Treatments were completed in 1 minute.

cat cornea = assay: In vivo cat model, corneal power by topographical mapping and optical examinations
Experimental: Two cats were treated with the active agent, glutaric anhydride. Treatment was applied to the right eye (OD) while the contra lateral eye (OS) served as a control. Buffer solution (0.02M disodium phosphate solution at pH 9.0) was first applied to the corneal surface. This was immediately followed by application of a solution of glutaric anhydride in disodium phosphate into a peripheral ring of a corneal mold placed on the corneal surface. The mold provided a tight seal to prevent migration of the active agent to the central cornea. Two treatment applications were provided at Day 1 and Day 7. The dosage of the active agent was 50 mg/mL. Eyes were examined for another 7 days following the second treatment.

[5] = system: reconstituted, lyophilized human dermis; assay: Third series: reconstituted lyophilized human dermis exposed to acylation agent
Description: In a third series of experiments, reconstituted, lyophilized human dermis samples were exposed to the acylation agents (glutaric anhydride). Again, dermal thickness increased from about 1 mm to 2 mm due to increased water binding. In addition, dermal pliability was increased as evidenced by the decreased relaxation time. It is hypothesized that the reactive agent changes the net charge distribution on collagen fibrils reducing the intensity of intrafibrillar interactions and increasing pliability. Increased water binding and pliability are characteristics associated with young skin.

Question: Which “High Modulus Region Pa)” value (articular cartilage) does the source give for CC(=O)OC(C)=O [acetic anhydride] here?
Answer: 47.7 Pa

Question: And the “Low Region Modulus (Pa)” value (articular cartilage)?
Answer: 16.6 Pa

Question: And the “histological examination, control vs treated articular cartilage” value (articular cartilage)?
Answer: no differences

Question: Which “thickness of Sample C relative to Sample D” value (dermal tissue; vs Sample D (hydrolyzed solution)) does the source give for O=C1CCCC(=O)O1 [glutaric anhydride] here?
Answer: significantly thicker

Question: What about the “elastic and viscous stress-strain curves” value (dermal tissue; vs Sample D (same solution after about 2 minutes, hydrolyzed)) of the same compound?
Answer: shifted to higher percent strain

Question: And the “Post-treatment Power (D), corneal power by topographical mapping” value ([1]; 20 mg/mL applied to 2 mm diameter area on apex of central cornea)?
Answer: 41.3 D

Question: What about the “Post-treatment Power (D), corneal power by topographical mapping” value ([1]; 20 mg/mL applied to about 1 mm wide ring around corneal periphery) of the same compound?
Answer: 37.4 D and 40.9 D

Question: And the “appearance of eyes by visual examination” value ([1]; after treatment, 20 mg/mL, 1 minute)?
Answer: appeared clear

Question: What about the “increase of refractive power” value ([1]; treatment of the central cornea, 20 mg/mL) of the same compound?
Answer: about 0.7 diopters

Question: And the “reduction of corneal power” value ([1]; treatment of the periphery of the cornea, 20 mg/mL)?
Answer: more than 2 diopters

Question: And the “central corneal surface compared to untreated eyes” value [2]?
Answer: clearly depressed or flattened

Question: What about the “sclera tissue softening by thumb pressure, treated vs untreated areas” value [3] of the same compound?
Answer: obvious

Question: And the “low modulus by compression analysis” value ([3]; after 0.2M disodium phosphate pH 9.5)?
Answer: significant loss of low modulus

Question: And the “High Modulus Region Pa)” value (articular cartilage)?
Answer: 58.1 Pa

Question: And the “Low Region Modulus (Pa)” value (articular cartilage)?
Answer: 26.7 Pa

Question: And the “histological examination, control vs treated articular cartilage” value (articular cartilage)?
Answer: no differences

Question: And the “Strain (%)” value ([4]; dose 50 mg/mL)?
Answer: 79%

Question: And the “Stress (MPa)” value ([4]; dose 50 mg/mL)?
Answer: 2.5 MPa

Question: What about the Thickness ([4]; dose 50 mg/mL) of the same compound?
Answer: 1.77 mm

Question: And the “Strain (%)” value ([4]; dose 100 mg/mL)?
Answer: 84%

Question: What about the “Stress (MPa)” value ([4]; dose 100 mg/mL) of the same compound?
Answer: 2.7 MPa

Question: And the Thickness ([4]; dose 100 mg/mL)?
Answer: 2.55 mm

Question: What about the “optical examinations, including slit-lamp biomicroscopy and Shiotz tonometry, treated vs control eyes” value (cat cornea; 7 days following the second treatment, 50 mg/mL) of the same compound?
Answer: no differences

Question: What about the “Average Post-treat (D), corneal power by topographical mapping” value (cat cornea; right eye (OD), 50 mg/mL in peripheral ring, two applications at Day 1 and Day 7) of the same compound?
Answer: 38.88 D and 40.68 D

Question: What about the dermal pliability [5] of the same compound?
Answer: increased

Question: And the relaxation time [5]?
Answer: decreased

Question: And the “dermal thickness after treatment” value ([5]; increased from about 1 mm)?
Answer: ~2 mm
